No end group written: not given here.

Type in all cases: cell-based
The test system of assay [1] is mouse pancreatic islets. The experiment in a line: Glucose stimulated insulin secretion (GSIS) in isolated mouse pancreatic islets. As to conditions: 20 nM GLP-1, 2 mM glucose. The method, then: Islets were isolated from mouse pancreas by collagenase digestion ([20]). The collagenase was dissolved in Hanks’ balanced salt solution (Invitrogen, Carlsbad, CA) containing 10 µg/ml DNase I (Roche Diagnostics, Indianapolis, IN) and 0.2% BSA, and was subsequently injected into the common bile duct. The pancreas was removed and incubated at 37°C for 20 min and washed three times with Hanks’ balanced salt solution and islets were collected under a microscope. Purified islets were used after an overnight incubation in RPMI 1640 medium containing 5.5 mmol/l glucose and 10% fetal bovine serum in a humidified atmosphere containing 5% CO2/95% air at 37°C. A group of 7 islets was preincubated in Krebs Ringer bicarbonate buffer (KRBH) containing 0.2% BSA and 2 mM glucose for 40 min at 37°C. The indicated concentration of GRK compounds or vehicle (DMSO) were added. The final DMSO concentration was 0.1%. After 30 min incubation at 37°C, 2 mM or 10 mM glucose along with 20 nM GLP-1 were added to wells. After further incubation for 1 hour at 37°C with shaking, culture supernatant was collected, and insulin was detected using the Insulin High Range Assay HTRF Kit according to the manufacturer’s instructions (Cisbio, Bedford, MA).

Assay [2] deals with β-arrestin recruitment to the GLP-1R. The experiment in a line: GLP-1 mediated β-arrestin recruitment assay (PathHunter eXpress GLP1R CHO-K1 β-Arrestin cells). The following applies: CHO-K1 cells stably expressing human GLP-1 receptor and β-arrestin. The method, then: PathHunter® eXpress GLP1R CHO-K1 β-Arrestin cells were plated at 6000 cells/well in a 384-well, PDL, white and opaque plate in F12 medium containing 10% FBS, 0.3 mg/ml hygromycin, and 0.8 mg/ml G418. The plate was incubated for two days in a humidified incubator at 37°C and 5% CO2 prior to the experiment. On the day of the exeperiment, the cells were washed once with the Assay Buffer (HBSS with calcium and magnesium, 20 mM Hepes, and 0.1% fatty-acid free BSA) followed by a 10 minute preincubation with GRK inhibitors or vehicle (DMSO) at the indicated concentrations. The final DMSO concentration was 0.1%. GLP-1 was added to the indicated concentrations, and incubation was continued for an additional 90 minutes at 37°C. The detection reagent was then added the cells, followed by a 60 minute incubation at the room temperature. The plate was read on MicroBeta LumiJet (PerkinElmer, Waltham, MA). In this cellular system, the GLP-1 receptor is fused in frame with the small enzyme fragment of ProLinkTM and co-expressed in cells expressing a fusion of the larger deletion mutant of β-gal, also called enzyme acceptor. […] The cellular β-gal enzyme activity is measured using chemiluminescent detection reagents.
A general note: Activated receptors often draw arrestin, which recruitment assays turn into a signal.

Assay [3] has as its system INS-1 832/13 cells. The assay can be described thus: GLP-1 mediated insulin secretion in INS-1 832/13 cells. The following applies: GLP-1 at 10 nM, 5 mM glucose. The method, then:
INS-1 832/13 cells were cultured in medium composed of RPMI 1640 medium supplemented with 10% fetal bovine serum, 50 IU/mL penicillin, 50 mg/L streptomycin, 10 mM HEPES, 2 mM L-glutamine, 1 mM sodium pyruvate, and 50 µM beta-mercaptoethanol. Cells were split twice a week, grown in a 37°C incubator under a humidified atmosphere containing 5% CO2 and plated at (60,000 cells/well) in a 96-well plate, two days prior to the experiment. Cells were washed twice with glucose-free Krebs-Ringer Bicarbonate buffer (KRB) (116 mM NaCl, 1.8 mM CaCl2, 0.8 mM MgSO4, 5.4 mM KCl, 1 mM NaH2PO4, 26 mM NaHCO3, and 0.2% fatty-acid free BSA, pH 7.4) followed by preincubation for 1 h at 37°C in glucose-free KRB and the indicated concentration of GRK compounds or vehicle (DMSO) were added. The final DMSO concentration was 0.1%. After 30 min incubation at 37°C, 2 mM or 5 mM glucose and 10 nM GLP-1 were added to the wells for a final volume of 200 μL. After further incubation for 1 hour at 37°C, 20 μL of the culture supernatant was diluted 1:15 in the Dilution Buffer provided in the Insulin High Range Assay HTRF Kit (Cisbio, Bedford, MA). Insulin was detected using the Insulin High Range Assay HTRF Kit according to the manufacturer’s instructions (Cisbio, Bedford, MA). All results were obtained in 5 replicates.

With “Human GLP-1 (7-36) amide (HAEGTFTSDVSSYLEGQAAKEFIAWLVKGR-NH2; UniProt P01275 98-127, looked up, fragment)”, in assay [1], the “insulin secretion at 2 mM glucose, GLP-1 alone” value is recorded as “did not stimulate insulin secretion”. For the same substance, the “EC80 for increase of cellular β-gal enzyme activity (β-arrestin recruitment)” value in assay [2] is listed as “approximately 100 nM”. In assay [3], the insulin secretion result was “stimulated insulin secretion”.

For the origin of these results see paper PMC8160450, “GRK Inhibition Potentiates Glucagon-Like Peptide-1 Action” (Frontiers in Endocrinology, 2021).
